Measurements taken from the NIST ThermoML archive (doi:10.1016/j.jct.2012.12.007).

Experiment: xn = mol fraction of the nth substance listed
Conditions: 101.3 kPa, Liquid; for speed of sound: Sing-around technique in a fixed-path interferometer; for mass density: Vibrating tube method

CCOCCOCCOCC [diethylene glycol diethyl ether] + CO
Conditions	mass density [kg/m3]	speed of sound [m/s]
293.15 K, x2 = 0.1141	904.9	1259.4
293.15 K, x2 = 0.1553	904.05	1259.4
293.15 K, x2 = 0.1987	903.07	1259.2
293.15 K, x2 = 0.249	901.79	1258.6
293.15 K, x2 = 0.2972	900.38	1257.7
293.15 K, x2 = 0.3651	898.01	1255.9
293.15 K, x2 = 0.3841	897.27	1255.2
293.15 K, x2 = 0.4206	895.72	1253.7
293.15 K, x2 = 0.4696	893.32	1251.3
293.15 K, x2 = 0.5133	890.89	1248.6
293.15 K, x2 = 0.5624	887.61	1244.7
293.15 K, x2 = 0.6126	883.69	1240
293.15 K, x2 = 0.6545	879.81	1235.1
293.15 K, x2 = 0.698	875.07	1229
293.15 K, x2 = 0.7575	867.11	1218.6
293.15 K, x2 = 0.8037	859.25	1208.1
293.15 K, x2 = 0.8469	850.24	1196
293.15 K, x2 = 0.9023	835.03	1175.4
293.15 K, x2 = 0.9467	818.74	1153.6
298.15 K, x2 = 0.1296	900	1240
298.15 K, x2 = 0.1589	899.4	1239.9
298.15 K, x2 = 0.1917	898.67	1239.7
298.15 K, x2 = 0.2627	896.83	1239
298.15 K, x2 = 0.2904	896.02	1238.5
298.15 K, x2 = 0.3505	894.01	1237.1
298.15 K, x2 = 0.3925	892.41	1235.8
298.15 K, x2 = 0.4241	891.01	1234.4
298.15 K, x2 = 0.4639	889.09	1232.6
298.15 K, x2 = 0.5181	886.01	1229.3
298.15 K, x2 = 0.5637	882.97	1225.8
298.15 K, x2 = 0.6132	879.12	1221.2
298.15 K, x2 = 0.6207	878.44	1220.4
298.15 K, x2 = 0.6959	870.83	1210.9
298.15 K, x2 = 0.7434	864.68	1203
298.15 K, x2 = 0.8007	855.37	1190.8
298.15 K, x2 = 0.8481	845.46	1177.7
298.15 K, x2 = 0.9005	831.08	1158.6
298.15 K, x2 = 0.9476	813.97	1135.9
303.15 K, x2 = 0.1058	895.27	1221.5
303.15 K, x2 = 0.1571	894.27	1221.5
303.15 K, x2 = 0.1991	893.31	1221.4
303.15 K, x2 = 0.2309	892.58	1220.9
303.15 K, x2 = 0.2886	890.89	1220.4
303.15 K, x2 = 0.3249	889.71	1219.5
303.15 K, x2 = 0.3748	887.88	1218.2
303.15 K, x2 = 0.4216	885.91	1216.5
303.15 K, x2 = 0.473	883.4	1214.1
303.15 K, x2 = 0.5164	880.9	1211.5
303.15 K, x2 = 0.5681	877.47	1207.7
303.15 K, x2 = 0.6092	874.33	1204.1
303.15 K, x2 = 0.6548	870.07	1199
303.15 K, x2 = 0.6984	865.35	1193.3
303.15 K, x2 = 0.7448	859.28	1185.6
303.15 K, x2 = 0.8012	849.99	1173.9
303.15 K, x2 = 0.8484	840.19	1161.1
303.15 K, x2 = 0.9007	825.94	1142.6
303.15 K, x2 = 0.9489	808.25	1119.6
